# Paper PMC7403421, “Uncovering a possible role of reactive oxygen species in magnetogenetics” (Scientific Reports, 2020)
# Biological target: T1, TRPV1 (Rattus norvegicus, UniProt O35433)
# T1 construct: rat TRPV1 with an N-terminally fused camelidae anti-GFP nanobody (αGFPnb-TRPV1), co-expressed with eGFP-tagged ferritin dimer in HEK-293T cells
# Assay: agonist dose response in Ca2+-dependent SEAP reporter and fluorescent calcium imaging in HEK-293T cells expressing TRPV1
# Format: cell-based
# T1 sequence (O35433 whole entry, the tested form may be a part): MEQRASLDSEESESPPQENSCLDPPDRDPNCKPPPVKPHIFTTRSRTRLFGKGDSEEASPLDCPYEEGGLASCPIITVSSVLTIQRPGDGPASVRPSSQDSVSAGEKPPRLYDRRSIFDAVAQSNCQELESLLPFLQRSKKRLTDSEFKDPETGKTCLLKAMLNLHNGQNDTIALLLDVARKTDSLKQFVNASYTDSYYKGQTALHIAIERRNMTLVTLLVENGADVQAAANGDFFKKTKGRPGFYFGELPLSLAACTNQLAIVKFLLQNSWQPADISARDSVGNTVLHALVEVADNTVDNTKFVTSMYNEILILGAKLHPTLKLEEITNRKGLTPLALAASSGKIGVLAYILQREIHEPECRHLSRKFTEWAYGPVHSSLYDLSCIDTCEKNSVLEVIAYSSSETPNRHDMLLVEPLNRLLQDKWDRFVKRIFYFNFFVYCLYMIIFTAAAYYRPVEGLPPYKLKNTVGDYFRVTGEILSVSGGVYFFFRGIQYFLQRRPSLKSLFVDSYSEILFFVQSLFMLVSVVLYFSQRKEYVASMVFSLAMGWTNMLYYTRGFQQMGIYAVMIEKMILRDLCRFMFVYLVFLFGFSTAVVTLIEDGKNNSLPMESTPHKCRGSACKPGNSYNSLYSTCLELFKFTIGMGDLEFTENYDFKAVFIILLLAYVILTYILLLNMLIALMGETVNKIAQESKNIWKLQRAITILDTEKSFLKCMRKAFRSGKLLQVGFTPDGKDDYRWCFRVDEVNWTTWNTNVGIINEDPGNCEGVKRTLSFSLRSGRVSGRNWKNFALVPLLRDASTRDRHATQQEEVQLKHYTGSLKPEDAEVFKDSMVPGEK
smiles,measurement,value
COc1cc(CNC(=O)CCCC/C=C/C(C)C)ccc1O [capsaicin],agonist dose response in Ca2+-dependent SEAP reporter and fluorescent calcium im,Dose dependent TRPV1-mediated SEAP production was observed with respect to both capsaicin and inhibitor concentration
